IC50, Ki and Ratio Ki data for two compounds are collected here from ChEMBL document CHEMBL3217687, “Identification of multifunctional small molecule-based reversible monoamine oxidase inhibitors” (Medchemcomm, 2011).

Usually IC50 stands for the concentration that gives 50% inhibition. By Ki is commonly meant the dissociation constant of the complex between target and ligand, obtained from inhibition or displacement.

The target in assay [1] is T1, Amine oxidase [flavin-containing] B (Homo sapiens, UniProt P27338).
T1 sequence (P27338 whole entry): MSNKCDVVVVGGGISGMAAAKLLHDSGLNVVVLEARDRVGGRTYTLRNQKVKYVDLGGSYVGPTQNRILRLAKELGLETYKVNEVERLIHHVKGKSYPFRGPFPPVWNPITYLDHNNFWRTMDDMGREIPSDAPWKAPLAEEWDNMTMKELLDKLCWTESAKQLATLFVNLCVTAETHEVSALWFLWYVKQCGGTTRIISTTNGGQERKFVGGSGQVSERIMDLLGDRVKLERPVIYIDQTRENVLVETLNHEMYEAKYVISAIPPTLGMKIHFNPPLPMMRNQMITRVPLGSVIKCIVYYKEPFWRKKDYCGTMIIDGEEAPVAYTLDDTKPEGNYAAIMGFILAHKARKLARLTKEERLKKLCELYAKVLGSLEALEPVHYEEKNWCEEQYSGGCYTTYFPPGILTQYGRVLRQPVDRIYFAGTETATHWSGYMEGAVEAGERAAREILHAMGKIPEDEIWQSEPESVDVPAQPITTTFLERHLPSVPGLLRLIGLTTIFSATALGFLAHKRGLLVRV
Kind of assay: Inhibition of human recombinant MAOB assessed as kynuramine conversion to 4-hydroxyquinoline after 20 mins by fluorescence assay.

Assay [2] has as its target T1, Amine oxidase [flavin-containing] B. Kind of assay: Binding affinity to human recombinant MAOB.
The target in assay [3] is T2, Amine oxidase [flavin-containing] A (Homo sapiens, UniProt P21397).
T2 sequence (P21397 whole entry): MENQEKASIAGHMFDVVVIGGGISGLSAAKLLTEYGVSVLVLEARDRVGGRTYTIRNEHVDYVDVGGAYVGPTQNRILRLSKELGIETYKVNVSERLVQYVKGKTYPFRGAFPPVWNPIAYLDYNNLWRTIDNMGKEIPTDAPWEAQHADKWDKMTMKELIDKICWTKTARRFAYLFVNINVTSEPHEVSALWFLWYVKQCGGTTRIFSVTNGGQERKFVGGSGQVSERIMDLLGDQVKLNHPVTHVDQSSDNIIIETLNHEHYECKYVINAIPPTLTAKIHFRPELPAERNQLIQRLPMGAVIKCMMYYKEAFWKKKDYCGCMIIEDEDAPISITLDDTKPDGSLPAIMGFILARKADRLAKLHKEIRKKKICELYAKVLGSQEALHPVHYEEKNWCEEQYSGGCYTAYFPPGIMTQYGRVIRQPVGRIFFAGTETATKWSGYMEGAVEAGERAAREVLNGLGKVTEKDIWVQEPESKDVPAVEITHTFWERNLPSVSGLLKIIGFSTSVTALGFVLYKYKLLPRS
Kind of assay: Inhibition of human recombinant MAOA assessed as kynuramine conversion to 4-hydroxyquinoline after 20 mins by fluorescence assay.

Assay [4] concerns the target T2, Amine oxidase [flavin-containing] A. Kind of assay: Binding affinity to human recombinant MAOA.
Assay [5] is filed under the species Homo sapiens. Kind of assay: Selectivity index, ratio of Ki for human recombinant MAOA to Ki for human recombinant MAOB.

Take `CN(C)c1ccc(/N=C/c2ccccn2)cc1`: the IC50 in assay [1] turned out to be 0.068 µM; in assay [3], 0.36 µM. The Ki in assay [2] was 0.04 µM; in assay [4] it was 0.1 µM. For the same compound, in assay [5], the Ratio Ki turned out to be 2.8.
Regarding `c1ccc(NCc2ccccn2)cc1`, the IC50 is 182 µM in assay [1] and 20 µM in assay [3]. The inhibition constant Ki was 97 µM in assay [2] and 5.7 µM in assay [4]. In assay [5], the Ratio Ki was determined as 0.06.
